Experiments:
Experiment in all cases: relative viability (nuclei count vs DMSO), 5 days (fraction); higher = more cells survive
[1] = compound: COC1=C(C=C(C=C1)C2=CC3=NC=CN3C(=N2)NC4=C(C=CC=N4)C(=O)N)OC [BAY61-3606] + COc1cc2c(Oc3ccc(NC(=O)C4(C(=O)Nc5ccc(F)cc5)CC4)cc3F)ccnc2cc1OCCCN1CCOCC1 [Foretinib] (partner 0.25 µM)
In short: (§1)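 Five library-drug doses in √10 steps were combined with a fixed anchor-drug dose, or a single drug was given alone, by pin tool to lung cancer cell lines in 1536-well plates the day after seeding. Nuclei were stained and counted after 5 days. Relative viability is the nuclei count in treated wells over that in vehicle wells, taken as the median of duplicate plates.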

[2] = compound: COc1cccc2c1C(=O)c1c(O)c3c(c(O)c1C2=O)C[C@@](O)(C(=O)CO)C[C@@H]3O[C@H]1C[C@H](N)[C@H](O)[C@H](C)O1 [Doxorubicin] + COc1cccc2cc(-c3nc([C@H]4CC[C@H](C(=O)O)CC4)n4ncnc(N)c34)[nH]c12 [OSI-027] (partner 0.5 µM)
In short: as §1

[3] = compound: COc1cccc2c1C(=O)c1c(O)c3c(c(O)c1C2=O)C[C@@](O)(C(=O)CO)C[C@@H]3O[C@H]1C[C@H](N)[C@H](O)[C@H](C)O1 [Doxorubicin] + Nc1nc2[nH]cc(CCc3ccc(C(=O)N[C@@H](CCC(=O)O)C(=O)O)cc3)c2c(=O)[nH]1 [Pemetrexed] (partner 0.2 µM)
In short: as §1

[4] = compound: COc1cccc2c1C(=O)c1c(O)c3c(c(O)c1C2=O)C[C@@](O)(C(=O)CO)C[C@@H]3O[C@H]1C[C@H](N)[C@H](O)[C@H](C)O1 [Doxorubicin] + CS(=O)(=O)CCNCc1ccc(-c2ccc3ncnc(Nc4ccc(OCc5cccc(F)c5)c(Cl)c4)c3c2)o1 [Lapatinib] (partner 2 µM)
In short: as §1

Row | Cell Line | relative viability ([1]; first compound 0.02 µM) | relative viability ([1]; first compound 0.06325 µM) | relative viability ([1]; first compound 0.2 µM) | relative viability ([1]; first compound 0.6325 µM) | relative viability ([1]; first compound 2 µM) | relative viability ([2]; first compound 0.001 µM) | relative viability ([2]; first compound 0.003162 µM) | relative viability ([2]; first compound 0.01 µM) | relative viability ([2]; first compound 0.03162 µM) | relative viability ([2]; first compound 0.1 µM) | relative viability ([3]; first compound 0.001 µM) | relative viability ([3]; first compound 0.003162 µM) | relative viability ([3]; first compound 0.01 µM) | relative viability ([3]; first compound 0.03162 µM) | relative viability ([3]; first compound 0.1 µM) | relative viability ([4]; first compound 0.001 µM) | relative viability ([4]; first compound 0.003162 µM) | relative viability ([4]; first compound 0.01 µM) | relative viability ([4]; first compound 0.03162 µM) | relative viability ([4]; first compound 0.1 µM)
1 | NCI-H2023 | 0.864 | 0.906 | 1.03 | 0.812 | 0.812 | 0.347 | 0.363 | 0.314 | 0.142 | 0.0903 | 0.247 | 0.218 | 0.212 | 0.128 | 0.0912 | 0.226 | 0.734 | 0.252 | 0.134 | 0.11
2 | NCI-H2085 | 1.07 | 0.947 | 0.995 | 0.871 | 0.917 | 0.786 | 0.784 | 0.667 | 0.679 | 0.589 | 0.904 | 0.943 | 0.939 | 1.1 | 0.802 | 0.745 | 0.85 | 0.763 | 0.652 | 0.608
3 | NCI-H2087 | 1.21 | 1.08 | 1.05 | 1.06 | 0.924 |  | 0.702 | 0.414 | 0.403 | 0.269 | 0.577 | 0.731 | 0.579 | 0.615 | 0.668 | 0.749 | 1.01 | 0.815 | 0.759 | 0.529
4 | NCI-H2126 | 1.4 | 1.21 | 1.06 | 1.13 | 0.959 | 0.538 | 0.701 | 0.642 | 0.662 | 0.651 | 0.623 | 0.738 | 0.712 | 0.699 | 0.681 | 0.766 | 0.796 | 0.76 | 0.728 | 0.773
5 | NCI-H2170 | 0.993 | 1.03 | 1.02 | 0.523 | 0.782 | 0.25 | 0.809 | 0.745 | 0.614 | 0.795 | 0.248 | 0.265 | 0.32 | 0.252 | 0.274 | 0.263 | 0.264 | 0.259 | 0.266 | 0.285
6 | NCI-H2228 | 0.891 | 0.914 | 0.714 | 0.858 | 0.645 | 0.35 | 0.62 | 0.414 | 0.274 | 0.209 | 0.335 | 0.344 | 0.32 | 0.278 | 0.244 | 0.971 | 0.962 | 0.65 | 0.187 | 0.119
7 | NCI-H2347 | 1.03 | 0.601 | 1.46 | 0.856 | 1.17 | 0.469 | 0.405 | 0.433 | 0.523 | 0.35 | 0.417 | 0.424 | 0.42 | 0.507 | 0.463 | 0.988 | 1.17 | 0.975 | 0.756 | 0.781
8 | NCI-H2405 | 1.06 | 1.05 | 1.11 | 1.11 | 0.867 | 0.607 | 0.645 | 0.654 | 0.629 | 0.509 | 1.05 | 1.11 | 1.05 | 0.942 | 0.445 |  | 1.07 | 1.05 | 0.639 | 0.301
9 | NCI-H3122 | 0.952 | 1.07 | 0.94 | 0.962 | 0.969 | 0.489 | 0.89 | 0.819 | 0.382 | 0.314 | 0.203 | 0.208 | 0.334 | 0.194 | 0.174 | 1.02 | 1 | 1.02 | 1 | 0.958
10 | PC-3 [JPC-3] |  | 1.03 | 1.08 | 1.06 | 0.949 | 0.797 | 0.729 | 0.747 | 0.733 | 0.801 | 1.2 | 1.12 | 1.15 | 1.05 | 0.663 | 0.455 | 0.444 | 0.46 | 0.451 | 0.448
11 | PC-14 | 0.992 | 0.957 | 0.911 | 0.963 | 0.931 | 0.683 | 1.14 | 0.865 | 0.161 | 0.0612 | 0.139 | 0.135 | 0.118 | 0.0995 | 0.0845 | 0.353 | 0.351 | 0.293 | 0.286 | 0.302
12 | RERF-LC-KJ | 0.899 | 0.922 | 0.828 | 0.886 | 0.779 | 0.643 | 0.556 | 0.544 | 0.302 | 0.261 | 0.458 | 0.496 | 0.418 | 0.39 | 0.382 | 0.905 | 0.817 | 0.863 | 0.759 | 0.815
13 | SK-LU-1 | 0.863 | 0.863 | 0.745 | 0.758 | 0.408 | 0.359 | 0.297 | 0.28 | 0.224 | 0.173 | 0.929 | 1.08 | 0.903 | 0.601 | 0.513 | 0.822 | 1.09 | 0.669 | 0.523 | 0.55
14 | SK-MES-1 | 1.08 | 0.918 | 0.85 | 0.96 | 0.839 | 0.637 | 0.719 | 0.516 | 0.174 | 0.129 | 0.926 | 0.899 | 0.872 | 0.291 | 0.234 | 0.423 | 0.444 | 0.489 | 0.396 | 0.409
15 | SW 1573 | 1.18 | 0.872 | 0.81 | 0.839 | 0.757 | 0.527 | 0.513 | 0.316 | 0.125 | 0.103 | 0.869 | 0.807 | 0.263 | 0.144 | 0.105 | 0.978 | 1.21 | 1.15 | 0.75 | 0.559

From the supplement of paper PMC10307832
